Measurements taken from patent US20040038861A1, “Methods and compositions for normalizing lipid levels in mammalian tissues” (priority 2001, published 2004).

Assays:
soleus muscle [1] = experiment: Triglyceride and free fatty acid content (enzymatic) in isolated soleus muscle of rats fed high fat diets; format: cell-based, rat; settings: diet with 40% added lard, 100 nM amylin or CGRP-1, 4.4 μM norepinephrine, 1 h
From the text: (§1) High-fatted rats. Groups of male Wistar rats (n=21/diet) were ad libitum fed high-fat diets containing standard rat chow to which 40% (w/w) of lard, corn oil or olive oil had been added, from the time of weaning (age=21 d) until sacrifice at 50 d. Triacylglycerol from lard contains predominantly saturated fatty acids; that from corn oil […], see Table 4.
(§2) Soleus muscle tissue isolation and incuhation.Immersion and incubation media was Krebs-Henseleit buffer (KHB) containing 118.5 mM NaCl, 4.75 mM KCl, 1.18 mM MgSO4.7H2O and KH2PO4, 24.8 mM NaHCO3, 2.54 mM CaCl2 and 10 mM d-glucose. The medium was gassed continuously with 95% O2/5% CO2. […] Soleus muscles of both legs were excised keeping the tissue immersed in KHB; muscles were separated into two equal parts and transferred to the incubation flasks. At the completion of incubation the muscles were snap frozen in liquid nitrogen, and then trimmed of connective tissue and all visible fat. The muscle strips were stored at −80° C. until analysis.
(§3) Lipid extraction and chromatographic separation of fatty acids. Total lipids were extracted from muscle strips by a modified version of the method of Bligh and Dyer (Gorski et al., 1988, Mol & Cell Biochem 178:113-118; 1. Bligh et al., 1959, Can J Biochem Physiol 37: 911-917). Muscles were homogenised (Soniprep 150) in 0.4 ml of deionised water. Solvent volumes used herein were varied according to the water content of the muscle (ie muscle weight) as described (Bligh & Dyer, supra). 2 vols of methanol containing 0.005% butylated hydroxy toluene (BHT) and 1 vol chloroform were added to the muscle suspension. Homogenates were vortexed at maximum speed for 2 minutes and centrifuged at 2,500 g for 4 minutes. Supernatants were recovered and pellets re-extracted with 2 vol methanol, 1 vol chloroform and 0.8 vol 0.2 N HCl. Residues were vortexed for 2 min then centrifuged at 3,500 g for 3 min. After centrifugation the combined supernatants were diluted with 2v each of milli Q water and chloroform and the phases separated by centrifugation at 3,500 g for 4 minutes. The lower chloroform phase was recovered, neutralised by dropwise addition of 0.2 N methanolic NH4OH and evaporated down in a stream of N2. The samples were stored at −80° C. until required.
(§4) Aminopropyl phase (250 mg) was packed into 16 ml teflon columns with teflon frits placed at the top and bottom of the bonded phase. Columns were placed in a Vac Elut apparatus and washed twice with 2 ml portions of hexane (Prasad et al., 1988, J Chromato 428: 221-228; Kaluzny et al., 1985, J Lipid Res 26: 135-140). The dry lipid samples were taken up in two 0.150 ml portions of chloroform and applied to the column under atmospheric pressure. After adsorption the neutral lipids were eluted with 4 ml of chloroform-2-propanol (2:1, v/v) and the free fatty acids eluted with 4 ml of 2% acetic acid in diethyl ether. The solvent containing the free fatty acids was dried under a stream of N2.
Determination of tissue free fatty acids and triacylglycerol concentration by enzymatic analyses. Free fatty acids were separated from total lipid, evaporated under a stream of N2 and stored at −80° C. until analysis. Samples were dissolved in 50 μl of warm ethanol (35-40° C.), and 0.625 ml of a Triton X-100 (6% w/v) solution was added once the ethanol reached room temperature. The solution was stirred for 30 min, then made up to 0.825 ml with the Triton solution. Free fatty acids were quantified using a commercial method (Boehringer Mannheim) adapted for micro analyses (Cobas Mira, Roche Diagnostics), with palmitic acid standards. Triacyl glycerol levels were quantified in the total lipid fraction (Pointe Scientific) with a glycerol standard.
Total lipid was extracted and quantitated. Results are shown in FIGS. 18A NEFA and 18B triglyceride.

soleus muscle [2] = experiment: Individual free fatty acids by gas chromatography in soleus muscle of rats fed high fat diets; design: species or system rat; settings: 1 hour, GC
From the text: as §1, §2, §3, §4
Gas-liquid chromatographic analysis. Dry free fatty acid residues were processed for derivatisation of methyl esters by the boron trifluoride-methanol method (Prasad, supra). 1 ml of boron trifluoride in methanol (BF3) was added to each sample, the sample vials were heated at 70° C. for 5 minutes, shaken vigorously, and baked for a further 10 minutes. Once the samples reached room temperature 0.5 ml milli Q water was added, the sample vials shaken, 0.1 ml heptane was added and the sample shaken again. 0.05 ml of the top heptane layer was removed for GLC analysis. A Model HP5890 Plus Series 2 (Hewlett-Packard) gas chromatograph equipped with a DB-225 column was used to separate the methyl esters of the fatty acids and a Model HP 5890 GC with a Model HP 5973 MS (Hewlett-Packard) GC/MS used to confirm the identity of individual free fatty acids. […]

[3] = rats fed diet high in olive oil

Compound: NC[C@H](O)c1ccc(O)c(O)c1 [Norepinephrine, norepinephrine]
- soleus muscle triglyceride content (soleus muscle [1]; control 1.14±0.16): 0.69 ± 0.09 µmol/g
- soleus muscle free fatty acid content (soleus muscle [1]; control 43±8): 75 ± 7 nmol/g
- free fatty acid adrenic C22:4 (soleus muscle [2]; rats fed diet high in corn oil): 0.05 ± 0.004 nmol/g wwt
- free fatty acid arachidic C20:0 (soleus muscle [2]; rats fed diet high in corn oil): 0.03 ± 0.002 nmol/g wwt
- free fatty acid arachidonic C20:4 (soleus muscle [2]; rats fed diet high in corn oil): 0.08 ± 0.009 nmol/g wwt
- free fatty acid cervonic C22:6 (soleus muscle [2]; rats fed diet high in corn oil): 0.04 ± 0.003 nmol/g wwt
- free fatty acid linoleic C18:2 (soleus muscle [2]; rats fed diet high in corn oil): 0.14 ± 0.02 nmol/g wwt
- free fatty acid linolenic C18:3 (soleus muscle [2]; rats fed diet high in corn oil): 0.13 ± 0.01 nmol/g wwt
- free fatty acid margaric C17:0 (soleus muscle [2]; rats fed diet high in corn oil): 0.04 ± 0.006 nmol/g wwt
- free fatty acid myristic C14:0 (soleus muscle [2]; rats fed diet high in corn oil): 0.02 ± 0.002 nmol/g wwt
- free fatty acid oleic C18:1 (soleus muscle [2]; rats fed diet high in corn oil): 0.12 ± 0.02 nmol/g wwt
- free fatty acid palmitic C16:0 (soleus muscle [2]; rats fed diet high in corn oil): 0.09 ± 0.01 nmol/g wwt
- free fatty acid palmitoleic (n-7) C16:1 (soleus muscle [2]; rats fed diet high in corn oil): 0.007 ± 0.0005 nmol/g wwt
- free fatty acid palmitoleic (n-9) C16:1 (soleus muscle [2]; rats fed diet high in corn oil): 0.15 ± 0.01 nmol/g wwt
- free fatty acid pentadecanoic C15:0 (soleus muscle [2]; rats fed diet high in corn oil): 0.04 ± 0.005 nmol/g wwt
- free fatty acid stearic C18:0 (soleus muscle [2]; rats fed diet high in corn oil): 0.11 ± 0.008 nmol/g wwt
- free fatty acid timnodonic C20:5 (soleus muscle [2]; rats fed diet high in corn oil): 0.05 ± 0.005 nmol/g wwt
- free fatty acid vaccenic C18:1 (soleus muscle [2]; rats fed diet high in corn oil): 0.02 ± 0.001 nmol/g wwt
- free fatty acid adrenic C22:4 (soleus muscle [2]; rats fed diet high in lard): 0.02 ± 0.003 nmol/g wwt
- free fatty acid arachidic C20:0 (soleus muscle [2]; rats fed diet high in lard): 0.03 ± 0.004 nmol/g wwt
- free fatty acid arachidonic C20:4 (soleus muscle [2]; rats fed diet high in lard): 0.012 ± 0.003 nmol/g wwt
- free fatty acid cervonic C22:6 (soleus muscle [2]; rats fed diet high in lard): 0.01 ± 0.001 nmol/g wwt
- free fatty acid linoleic C18:2 (soleus muscle [2]; rats fed diet high in lard): 0.09 ± 0.003 nmol/g wwt
- free fatty acid margaric C17:0 (soleus muscle [2]; rats fed diet high in lard): 0.08 ± 0.008 nmol/g wwt
- free fatty acid myristic C14:0 (soleus muscle [2]; rats fed diet high in lard): 0.04 ± 0.007 nmol/g wwt
- free fatty acid oleic C18:1 (soleus muscle [2]; rats fed diet high in lard): 0.21 ± 0.01 nmol/g wwt
- free fatty acid palmitic C16:0 (soleus muscle [2]; rats fed diet high in lard): 0.23 ± 0.02 nmol/g wwt
- free fatty acid palmitoleic (n-7) C16:1 (soleus muscle [2]; rats fed diet high in lard): 0.02 ± 0.0008 nmol/g wwt
- free fatty acid palmitoleic (n-9) C16:1 (soleus muscle [2]; rats fed diet high in lard): 0.01 ± 0.001 nmol/g wwt
- free fatty acid pentadecanoic C15:0 (soleus muscle [2]; rats fed diet high in lard): 0.13 ± 0.02 nmol/g wwt
- free fatty acid stearic C18:0 (soleus muscle [2]; rats fed diet high in lard): 0.22 ± 0.01 nmol/g wwt
- free fatty acid timnodonic C20:5 (soleus muscle [2]; rats fed diet high in lard): 0.02 ± 0.004 nmol/g wwt
- free fatty acid vaccenic C18:1 (soleus muscle [2]; rats fed diet high in lard): 0.07 ± 0.003 nmol/g wwt
- free fatty acid adrenic C22:4 (soleus muscle [2]; [3]): 0.02 ± 0.0007 nmol/g wwt
- free fatty acid arachidic C20:0 (soleus muscle [2]; [3]): 0.009 ± 0.0004 nmol/g wwt
- free fatty acid arachidonic C20:4 (soleus muscle [2]; [3]): 0.03 ± 0.0008 nmol/g wwt
- free fatty acid cervonic C22:6 (soleus muscle [2]; [3]): 0.12 ± 0.03 nmol/g wwt
- free fatty acid linoleic C18:2 (soleus muscle [2]; [3]): 0.04 ± 0.009 nmol/g wwt
- free fatty acid linolenic C18:3 (soleus muscle [2]; [3]): 0.04 ± 0.01 nmol/g wwt
- free fatty acid margaric C17:0 (soleus muscle [2]; [3]): 0.01 ± 0.001 nmol/g wwt
- free fatty acid myristic C14:0 (soleus muscle [2]; [3]): 0.005 ± 0.0002 nmol/g wwt
- free fatty acid oleic C18:1 (soleus muscle [2]; [3]): 0.28 ± 0.03 nmol/g wwt
- free fatty acid palmitic C16:0 (soleus muscle [2]; [3]): 0.19 ± 0.002 nmol/g wwt
- free fatty acid palmitoleic (n-7) C16:1 (soleus muscle [2]; [3]): 0.03 ± 0.009 nmol/g wwt
- free fatty acid palmitoleic (n-9) C16:1 (soleus muscle [2]; [3]): 0.23 ± 0.01 nmol/g wwt
- free fatty acid pentadecanoic C15:0 (soleus muscle [2]; [3]): 0.01 ± 0.0004 nmol/g wwt
- free fatty acid stearic C18:0 (soleus muscle [2]; [3]): 0.16 ± 0.006 nmol/g wwt
- free fatty acid timnodonic C20:5 (soleus muscle [2]; [3]): 0.04 ± 0.004 nmol/g wwt
- free fatty acid vaccenic C18:1 (soleus muscle [2]; [3]): 0.2 ± 0.003 nmol/g wwt
